In article PMC11337160, “Chirality and pH Influence the Self-Assembly of Antimicrobial Lipopeptides with Diverse Nanostructures” (ACS Applied Bio Materials, 2024):
≈ marks a conversion by molar mass, not a printed value. Non-standard residues stand in square brackets, D forms with d. Residues, ends and D or L forms follow the SMILES beside them. *: point of attachment. Palmitoyl = CCCCCCCCCCCCCCCC(=O)*

Columns and labels:
[1] = Cryo-TEM imaging of self-assembled nanostructures; type: physicochemical; details: 1 wt % aqueous solution, pH 8
Method: The Cryo-TEM imaging was performed using a field emission cryo-electron microscope (JEOL JEM-3200FSC), operating at 200 kV. To take the TEM images bright field mode with a zero-loss energy filter (omega type) was used, with a slit width of 20 eV. A Gatan UltraScan 4000 CCD camera was used to record the micrographs. During the entire experiment, the sample was kept at −187 °C. An automated FEI Vitrobot device was used to blot and vitrify samples on Quantifoil 3.5:1 holey carbon copper grids with a hole size of 3.5 μm. Before taking the images, grids were first plasma cleaned using a Gatan Solarus 9500 plasma cleaner, followed by transferring to the environmental chamber of a FEI Vitrobot at room temperature and 100% humidity. For sample spotting on the grid, 3 μL of sample solution was taken and spread on the grid. It was blotted twice and then vitrified in a 1:1 mixture of liquid ethane and propane at a temperature of −180 °C. The grids with vitrified sample solution were maintained at liquid nitrogen temperature and then cryo-transferred to the microscope.
The self-assembled nanostructure of these lipopeptides at acidic pH was investigated at the lower pH of 4.6 in our recent paper,[43] and here we report the unexpected observation of distinct self-assembled nanostructure of these lipopeptides at a higher pH. For cryo-TEM imaging at basic pH, 1 wt % aqueous solution of lipopeptides at pH 8 were prepared, this concentration being above the measured CAC values for these lipopeptides. […] In contrast, the TEM images of all the lipopeptides at pH 4.6 show small spherical micelles with a mean diameter of 4–9 nm (as reported previously,[43] with additional images in Figure S5).

S. enterica = details: MIC values were reported previously; cited from earlier work
From the text: Table 1 Antimicrobial, Cytotoxic, and Selectivity Index Activities of Lipopeptides ^a | column: MIC (μg/mL) / S. enterica

[2] = test system: Salmonella enterica NCTC 5188; test: Minimum bactericidal concentration (MBC); type: cell-based; details: 5 × 10^6 CFU/mL in MHB, lipopeptide 0-1000 μg/mL, 18 h at 37 °C, 10 μL spot-inoculated onto LB agar, overnight 37 °C
Method: (§1) Two Gram-negative strains (Escherichia coli K12 and Salmonella enterica NCTC 5188) and one Gram-positive strain (Staphylococcus aureus ATCC 12600) were employed to evaluate the potential bactericidal activity of tested lipopeptides. A single colony from each strain, pre-streaked onto an LB (lysogeny broth) agar plate, was inoculated into 5 mL of LB broth and incubated at 37 °C with shaking (250 rpm) for 18 h. Then, the bacterial culture was adjusted to 5 × 10^6 CFU mL^–1 mid-log phase in Mueller-Hinton broth (MHB), and aliquots were transferred to individual wells of a U-bottom 96-well microplate with increasing concentrations of lipopeptides (0–1000 μg mL^–1). Included positive and negative controls consisted of 0.97 μg mL^–1 ciprofloxacin or 1× PBS in MHB, respectively. After 18 h of incubation at 37 °C, 10 μL from each well was spot-inoculated onto LB agar and plates were further incubated at 37 °C overnight to assess the MBC which refers to the lowest concentration of an antibacterial agent required to kill bacteria (here denoted by colony growth on the plate).
(§2) Figure 9 Determination of MBC of lipopeptides P1, P1D, P2, and P2D. 10 μL aliquots from broth microdilution plates were spot-inoculated onto LB agar plates. The MBC refers to the lowest concentration of an antibacterial agent required to completely kill bacteria shown by the lack of colony formation. […] Positive control (+) 0.97 μg mL^–1 ciprofloxacin; negative control (−) 1X PBS.

[3] = Critical aggregation concentration (CAC) by Thioflavin T fluorescence; type: physicochemical; details: ThT fluorescence probe (5 × 10^–4 wt % ThT), aqueous solution pH 8, 25 °C, λex 440 nm, emission 487 nm, breakpoint of I/I0 versus concentration
Method: For the fluorescence experiments, a Varian Cary Eclipse spectrofluorometer was used, and the samples were placed in 4 mm inner-width quartz cuvettes. For experimental settings, excitation and emission bandwidths of 2.5 nm were used. All the experiments were carried out at 25 °C. The CAC value for all the samples was determined by fluorescence experiments with Thioflavin T (ThT). ThT is well known to bind to amyloid fibrils, and can be used to determine CAC values.[44]−[46] First a stock solution (5 × 10^–4 wt %) ThT solution was prepared and using this solution, various concentrations of samples were prepared. The scan of the fluorescence spectra (λex = 440 nm) was taken from 460 to 670 nm.
The CAC value of the samples was calculated by plotting I/I0 versus concentration (in wt %). Here I0 is the maximum intensity for the control, i.e., ThT solution without the sample, and I signifies the maximum fluorescence intensity of ThT at a given concentration of lipopeptide.
To determine the CAC values of these lipopeptides, fluorescence probe assays using Thioflavin T (ThT) were performed, this dye being sensitive to the formation of β-sheet structures.[44]−[46] Emission spectra of the four lipopeptides were collected at different concentrations after excitation at 440 nm. At higher concentrations, an emission peak at 487 nm is visible. […] The lower CAC values for P2 and P2D are due to the higher hydrophobicity of tryptophan compared to tyrosine. […] However, since aggregation at the two different pH values gives rise to distinct nanostructures, this may be coincidental.

E. coli [4] = details: MIC values were reported previously; cited from earlier work
From the text: Table 1 Antimicrobial, Cytotoxic, and Selectivity Index Activities of Lipopeptides ^a | column: MIC (μg/mL) / E. coli

S. aureus = details: MIC values were reported previously; cited from earlier work
From the text: Table 1 Antimicrobial, Cytotoxic, and Selectivity Index Activities of Lipopeptides ^a | column: MIC (μg/mL) / S. aureus

Escherichia coli K12 = type: cell-based; details: K12, 18 h
Method: as §1, §2

[5] = test system: Staphylococcus aureus ATCC 12600; type: cell-based; details: ATCC 12600, 18 h
Method: as §1, §2

E. coli [6] = test: Live/Dead staining, membrane integrity (epifluorescence); type: cell-based; details: two-fold MIC of lipopeptide, 1 h at 37 °C, compared to P1 and P1D
From the text: A bacteria Live/Dead staining kit (PromoKine) was employed to gain insight into the possible membrane disruption activity of tested lipopeptides. In summary, we used two color fluorescence dyes with varying ability to cross the cytoplasmatic membranes of bacteria. DMAO is a green-fluorescent nucleic acid dye which stains the cell membranes of both live and dead bacteria, while the red fluorescing EthD-III dye selectively stains dead bacteria with compromised membranes. With appropriately calculated volumes of dyes, live viable bacterial cells fluoresce green whilst dead compromised cells fluoresce red. For this assessment, a total of 5 × 10^6 mL^–1 exponential phase bacterial cells were incubated with two-fold MIC of lipopeptides for 1 h at 37 °C. Negative and positive controls consisted respectively of the addition of PBS and Triton-X100 (1%) to replace lipopeptides. Afterwards, the sample was centrifuged at 1000g for 10 min. The pellet was resuspended in 100 μL of 0.85% buffered NaCl with the epifluorescence dyes, following the kit instructions, and incubated for 15 min at room temperature. The samples were examined under a Nikon Eclipse Ti2 inverted microscope.
Figure 10 Membrane permeabilization of E. coli (A) and S. aureus (B) was observed through epifluorescence microscopy. […]

| SMILES | self-assembled nanostructure (cryo-TEM) [1] | MIC S. enterica (S. enterica) [µg/mL] | MBC S. enterica [2] [µg/mL] | CAC (critical aggregation concentration) [3] [wt %] | MIC E. coli (E. coli [4]) [µg/mL] | MIC S. aureus (S. aureus) [µg/mL] | MBC E. coli (Escherichia coli K12) [µg/mL] | MBC S. aureus [5] [µg/mL] | formation of bacterial cell aggregates, E. coli (E. coli [6]) | mean diameter of nanostructure (cryo-TEM) [1] [nm] |
| --- | --- | --- | --- | --- | --- | --- | --- | --- | --- | --- |
| CCCCCCCCCCCCCCCC(=O)N[C@@H](Cc1ccc(O)cc1)C(=O)N[C@H](CCCCN)C(=O)N[C@H](CCCCN)C(N)=O [P1D] (Palmitoyl-Tyr-[dK]-[dK]-NH2) | twisted nanotape structures of variable width | 31.25 (≈ 46.3 µM) | 125 (≈ 185 µM) | 0.034 ± 0.005 | 15.63 to 31.25 | 31.25 (≈ 46.3 µM) | 62.5 (≈ 92.6 µM) | 250 (≈ 370 µM) | – | – |
| CCCCCCCCCCCCCCCC(=O)N[C@@H](Cc1c[nH]c2ccccc12)C(=O)N[C@@H](CCCCN)C(=O)N[C@@H](CCCCN)C(N)=O [P2] (Palmitoyl-Trp-Lys-Lys-NH2) | long intertwined nanofibers | 62.5 to 250 | 250 (≈ 358 µM) | 0.026 ± 0.004 | 15.63 to 62.5 | 31.25 to 62.5 | 250 (≈ 358 µM) | 250 (≈ 358 µM) | cell aggregates (clusters) was observed | 6.4 ± 2 |
| CCCCCCCCCCCCCCCC(=O)N[C@@H](Cc1c[nH]c2ccccc12)C(=O)N[C@H](CCCCN)C(=O)N[C@H](CCCCN)C(N)=O [P2D] (Palmitoyl-Trp-[dK]-[dK]-NH2) | nanotube structures | 62.5 (≈ 89.5 µM) | 125 (≈ 179 µM) | 0.026 ± 0.004 | 31.25 to 62.5 | 31.25 to 62.5 | 62.5 (≈ 89.5 µM) | 62.5 (≈ 89.5 µM) | cell aggregates (clusters) was observed | 32.8 ± 4.5 |
| CCCCCCCCCCCCCCCC(=O)N[C@@H](Cc1ccc(O)cc1)C(=O)N[C@@H](CCCCN)C(=O)N[C@@H](CCCCN)C(N)=O [P1] (Palmitoyl-Tyr-Lys-Lys-NH2) | long intertwined nanofibers | 31.25 to 62.5 | 125 (≈ 185 µM) | 0.040 ± 0.003 | 15.63 to 31.25 | 31.25 to 62.5 | 62.5 (≈ 92.6 µM) | 62.5 (≈ 92.6 µM) | – | 11.7 ± 3.3 |
